Measurements published in US6706267B1, “Glucosamine and egg for reducing inflammation” (Arkion Life Sciences LLC, priority 1999, dated 2004).
Marks after values point to notes of the source that are not given here.

Key:
Type in all cases: in vivo
[1] = tested on: established rat adjuvant arthritis; assay: Rat established adjuvant arthritis model: paw edema; settings: for % Chg (paw edema vs Control Adjuvant) / Day 14-Mean Paw Edema (ml ± SE) / Day 22-Mean Paw Edema (ml ± SE) / Day 30-Mean Paw Edema (ml ± SE): oral, rat
Text: (§1) To assess the synergistic antiarthritic effect of Glucosamine hydrochloride and the DCV hyperimmune egg in the established rat adjuvant arthritis, a chronic animal model of inflammation.

[2] = tested on: plasma fibrinogen; assay: Rat established adjuvant arthritis model: plasma fibrinogen levels
Text: as §1

[3] = tested on: established rat adjuvant arthritis; assay: Rat adjuvant arthritis model: histomorphologic observations, tibiotarsal joint; set-up: scale not given here; settings: for Ankylosis (score) / Erosion, Cartliage (score) / Hyperostosis (score) / Inflammation, periarticular (score) / Osteolysis (score) / Pannus, Cartliage (score): Tibiotarsal Joint (H&E); for Erosion, Cartilage (score): Tibiotarsal Joint (PAS)
Text: as §1

Row | Compound | % Chg (paw edema vs Control Adjuvant) ([1]; Day 14) | Day 14-Mean Paw Edema (ml ± SE) ([1]; Day 14) | % Chg (paw edema vs Control Adjuvant) ([1]; Day 22) | Day 22-Mean Paw Edema (ml ± SE) ([1]; Day 22) | % Chg (paw edema vs Control Adjuvant) ([1]; Day 30) | Day 30-Mean Paw Edema (ml ± SE) ([1]; Day 30) | % Δ from ctrl (plasma fibrinogen) ([2]; Day 23, oral) | Mean Plasma Fibrinogen Levels (mg/dl ± SE) ([2]; Day 23, oral) | % Δ from ctrl (plasma fibrinogen) ([2]; Day 30, oral) | Mean Plasma Fibrinogen Levels (mg/dl ± SE) ([2]; Day 30, oral) | Ankylosis (score) ([3]; Day 22) | Erosion, Cartliage (score) ([3]; Day 22) | Hyperostosis (score) ([3]; Day 22) | Inflammation, periarticular (score) ([3]; Day 22) | Osteolysis (score) ([3]; Day 22) | Pannus, Cartliage (score) ([3]; Day 22) | Ankylosis (score) ([3]; Day 30) | Erosion, Cartliage (score) ([3]; Day 30) | Hyperostosis (score) ([3]; Day 30) | Inflammation, periarticular (score) ([3]; Day 30) | further results
1 | Cl.N[C@H]1C(O)O[C@H](CO)[C@@H](O)[C@@H]1O (some centres unmarked) [GLU-250, Glucosamine hydrochloride] | −15% | 1.1 ± 0.3, n = 7 ml | −16% | 1.6 ± 0.3, n = 7 ml | +48* % | 3.1 ± 0.2, n = 5 ml | −2% | 803 ± 39 mg/dL | −28% | 487 ± 112 mg/dL | 3.5 | 2.0 | 3.0 | 3.5 | 1.5 | 2.0 | 4.0 | 4.0 | 3.5 | 4.0 | effect on paw edema, in words ([1]; day 30, severe polyarthritis): ineffectiveness; effect on paw edema, in words ([1]; days 14 and 22): inhibitory effect; % Δ from ctrl (plasma fibrinogen) ([2]; Day 16, oral): +18%; Mean Plasma Fibrinogen Levels (mg/dl ± SE) ([2]; Day 16, oral): 735 ± 44 mg/dL; Osteolysis (score) ([3]; Day 30): 3.5; Pannus, Cartliage (score) ([3]; Day 30): 4.0; Erosion, Cartilage (score) ([3]; Day 22): 2.0; Erosion, Cartilage (score) ([3]; Day 30): 4.0
2 | COc1ccc2c(c1)c(CC(=O)O)c(C)n2C(=O)c1ccc(Cl)cc1 [Indo, Indomethacin] | −8% | 1.2 ± 0.4, n = 6 ml | −37% | 1.2 ± 0.1, n = 6 ml | −86* % | 0.3 ± 0.1, n = 5 ml | −28% | 617 ± 72 mg/dL | −46* % | 366 ± 48 mg/dL | 1.5/1.5 | 1.5 | 3.0 | 3.5/3.5 | 2.5 | 1.5 | 1.5/1.5 | 2.5 | 2.0 | 3.5/3.5 | percent inhibition of fibrinogen levels ([2]; day 30): 46%; Osteolysis (score) ([3]; Day 30): 1.0; Pannus, Cartliage (score) ([3]; Day 30): 2.5; Erosion, Cartilage (score) ([3]; Day 22): 1.5; Erosion, Cartilage (score) ([3]; Day 30): 2.5
